Source: US12594336B2, “Trace element solution” (WARBURTON TECHNOLOGY LIMITED, priority 2012, dated 2026)

What was measured:
[1] = Feasibility study: incorporation/solubilisation of stabilizers in the EDTA-complexed trace element solution
Text: Incorporation of vitamin B12 with different stabilizers was screened.
The following concentrations of butaphosphan have been tested:

[2] = Physical stability study (visual inspection) of stabilizer solutions with vitamin B12 at ambient temperature; type: physicochemical
Procedure: Based on known injectable processes, with organometallics complex with EDTA, incorporation of vitamin B12 was screened by testing 3 possible different stabilizers. • Second Phase consists in evaluating the physical and chemical stability of the formulations which have been developed during precedent phase with the aim to select stable formulation prototypes.
Physical stability study was performed at 5° C., 25° C./60% RH and 40° C./75% RH: T0, T1, T2 and T3 months. A visual inspection was checked at different periods in order to control the absence of precipitation in the formulations. Assay of vitamin B12 was followed up on stability at 25° C./60% RH and 40° C./75% RH: T0, T3 and T6 months.
Then a quantity of stock solution of vitamin B12 was incorporated in the mix to have a final concentration of 0.15% w/v.
Physical stability study was performed on 5 and 10% w/v butaphosphan (with vitamin B12) solutions at ambient temperature: […]

Structure (SMILES) | appearance of solution obtained ([1]; butaphosphan 5% w/v) | appearance of solution obtained ([1]; butaphosphan 10% w/v) | physical stability, appearance ([2]; 5 and 10% w/v butaphosphan with vitamin B12 (0.15% w/v), ambient temperature, T1 week) | physical stability, appearance ([2]; 5 and 10% w/v butaphosphan with vitamin B12 (0.15% w/v), ambient temperature, T2 weeks) | physical stability, appearance ([2]; 5 and 10% w/v butaphosphan with vitamin B12 (0.15% w/v), ambient temperature, T4 weeks) | physical stability, appearance ([2]; 5 and 15% w/v glycine with vitamin B12, ambient temperature, T1 week) | physical stability, appearance ([2]; 5 and 15% w/v glycine with vitamin B12, ambient temperature, T2 weeks) | physical stability, appearance ([2]; 5 and 15% w/v glycine with vitamin B12, ambient temperature, T4 weeks)
CCCCNC(C)(C)[PH](=O)O [butaphosphan, (1-Butylamino-1-methyl-ethyl)-phosphinic acid] | dark clear solution without particles | dark clear solution without particles | dark clear solution | dark clear solution | dark clear solution |  |  | 
NCC(=O)O [glycine, Glycine] |  |  |  |  |  | dark clear solution with particle | dark clear solution with particle | dark clear solution with particle
